For data set [1], the system named is cotton event pDAB4468.19.10.3. The data set is described as follows: Agronomic characterization in field trials with and without herbicide applications. The following applies: sprayed vs unsprayed event plants; standard field application rates. The format is in vivo, Gossypium hirsutum. The text has this: The agronomic characteristics of cotton event pDAB4468.19.10.3 were quantified in field trials conducted across geographically different locations throughout the cotton belt in 2010. These studies compared the agronomic performance of cotton event pDAB4468.19.10.3 (with and without applications of the herbicides 2,4-D and glufosinate) to the non-transgenic near-isoline control, Coker 310. No agronomically meaningful unintended differences were observed between cotton event pDAB4468.19.10.3 and the Coker 310 control plants. […] Additionally, the agronomic performance of cotton event pDAB4468.19.10.3 was not altered as a result of the application of the herbicides, 2,4-D and glufosinate, as compared to the cotton event pDAB4468.19.10.3 plants which were not sprayed with the herbicide treatments. […]
Seeds of cotton event pDAB4468.19.10.3 and seeds of the near-isoline control line, Coker 310, were planted at a rate of 80 seeds per 20 ft row with a row spacing of 34-38 inches (86.36 cm-96.52 cm). […] The measured agronomic characteristics were equivalent for cotton event pDAB4468.19.10.3 as compared to the Coker 310 near-isoline control plants for all of the agronomic characteristics measured and statistically analyzed. […]

The subject of data set [2] is cotton event pDAB4468.19.10.3. In words: Tolerance to 2,4-D in field trials (percent visual injury). The format is in vivo, Gossypium hirsutum. The following applies: for Percent visual injury: single post-emergence application, 2-4 leaf. On the procedure:
The tolerance of cotton event pDAB4468.19.10.3 to post-emergence applications of the phenoxyacetic acid herbicide, 2,4-D, was studied in field trials during the 2010 growing season. Herbicide tolerance was assessed following a single post-emergence application of 2,4-D applied to 2-4 leaf cotton event pDAB4468.19.10.3. The application of 2,4-D on cotton plants at this stage of development represents a herbicide application timing typically utilized to achieve satisfactory weed control by cotton growers.
2,4-D tolerance was measured by assessing cotton plants for injury at 0-1 day after application (DAA), 7-8 DAA, 12-16 DAA, and 24-32 DAA. Measurements for the 0-1 day time increment were taken from 6-24 hours after the application. Injury was assessed by assigning a percent visual injury rating using a linear percentage scale (1-100%) where 0% represents no visible herbicide injury and 100% represents plant death. The ratings were a composite score for any herbicide symptomology including epinasty, chlorosis, leaf necrosis and plant death. Herbicide symptomology present at 0-1 DAA was primarily epinasty and symptoms at later evaluations were primarily chlorosis and necrosis.
(§1) Field trials were conducted at eleven locations across the United States in typical cotton producing areas of Alabama, Arkansas, California, Georgia, Louisiana, Mississippi, North Carolina, South Carolina, and Tennessee. Trials were designed with four replications per treatment. Each replication was separated by a bare-soil alley 10-15 feet wide. Plot size for individual treatments was 2 rows by 20 feet long with rows typically spaced 36-40 inches apart. Experimental treatments consisted of cotton event pDAB4468.19.10.3 sprayed with 2,4-D amine (Weedar 64™, NuFarm, Burr Ridge, Ill.) at either 0, 1120, 2240, or 4480 grams acid equivalent per hectare (g ae/ha) applied in 15 gallons per acre of final spray solution. A non-transformed cotton comparator treatment was not included in these experiments since treatment with 2,4-D at rates much lower than the lowest rate tested (1120 g ae/ha) are known to result in plant death.

Another data set concerns non-transformed cotton. Particulars: rates much lower than the lowest rate tested (1120 g ae/ha); known; cited from earlier work.
The test system of data set [3] is cotton event pDAB4468.19.10.3. The data set is described as follows: Tolerance to glufosinate in field trials (percent visual injury). It counts as in vivo, Gossypium hirsutum. Particulars: for Percent visual injury: single post-emergence application, 6-8 leaf. On the procedure: The tolerance of cotton event pDAB4468.19.10.3 to post-emergence applications of glufosinate was studied in field trials during the 2010 growing season. Herbicide tolerance was assessed following a single post-emergence application of glufosinate applied to 6-8 leaf cotton event pDAB4468.19.10.3, which represents a herbicide application timing typically utilized with glufosinate to achieve satisfactory weed control.
Glufosinate tolerance was measured by assessing cotton plants for injury at 2-4 days after application (DAA), 7-9 DAA, 13-19 DAA and 22-29 DAA. Injury was assessed by assigning a percent visual injury rating using a linear percentage scale (1-100) where 0% represents no visible herbicide injury and 100% represents plant death. The ratings were a composite score for any herbicide symptomology including chlorosis, leaf necrosis, stunting and plant death. Herbicide symptomology (where present) was primarily chlorosis and necrosis.
as §1, with “glufosinate ammonium (Ignite 280 SL™, Bayer, Research Triangle, N.C.)” for “2,4-D amine (Weedar 64™, NuFarm, Burr Ridge, Ill.)”, “542, 1084,” for “1120, 2240,”, “2168” for “4480”, “glufosinate” for “2,4-D”, “(542” for “(1120”, “would be expected” for “are known”

On to `O=C(O)COc1ccc(Cl)cc1Cl` [2,4-D], for which the “agronomic performance of the event as a result of herbicide application” value in data set [1] was “not altered”. Besides, the “herbicide injury noted in the field experiments” value in data set [2] (1120-4480 g ae/ha, with the exception of transient epinasty 0-1 DAA) is on record as “no agronomically-significant herbicide injury”. The Percent visual injury in data set [2] (1120 g ae/ha, 0-1 DAA) came to 3.6%; in data set [2] (1120 g ae/ha, 7-8 DAA), 1.4%; in data set [2] (1120 g ae/ha, 12-16 DAA), 0.6%; in data set [2] (1120 g ae/ha, 24-32 DAA) it was 0.0%; in data set [2] (2240 g ae/ha, 0-1 DAA) it was 11.8%; in data set [2] (2240 g ae/ha, 7-8 DAA), 3.5%. For the same molecule, the Percent visual injury in data set [2] (2240 g ae/ha, 12-16 DAA) is reported as 2.7%; in data set [2] (2240 g ae/ha, 24-32 DAA), 0.1%; in data set [2] (4480 g ae/ha, 0-1 DAA), 19.4%; in data set [2] (4480 g ae/ha, 7-8 DAA), 11.0%; in data set [2] (4480 g ae/ha, 12-16 DAA), 5.9%; in data set [2] (4480 g ae/ha, 24-32 DAA), 0.6%. For the same molecule, the “crop injury beyond the 7-8 DAA evaluation interval” value in data set [2] (4480 g ae/ha (>4x rate required for weed control)) is listed as “little crop injury”. Besides, in the data set on non-transformed cotton, the “result of treatment of non-transformed cotton” value is on record as “plant death”.

With `CP(=O)(O)CCC(N)C(=O)O` (stereo not shown) [glufosinate], the “herbicide injury noted in the field experiments” value in data set [3] (542-2168 g ae/ha, with the exception of transient chlorosis at 2168 g ae/ha at 2-4 & 7-9 DAA) is listed as “no agronomically significant herbicide injury”. The Percent visual injury in data set [3] (542 g ae/ha, 2-4 DAA) is reported as 2.7%; in data set [3] (542 g ae/ha, 7-9 DAA), 1.9%; in data set [3] (542 g ae/ha, 13-19 DAA), 0.1%; in data set [3] (542 g ae/ha, 22-29 DAA), 0.0%; in data set [3] (1084 g ae/ha, 2-4 DAA), 6.6%; in data set [3] (1084 g ae/ha, 7-9 DAA) it was 4.0%. The Percent visual injury was 0.2% in data set [3] (1084 g ae/ha, 13-19 DAA); 0.0% in data set [3] (1084 g ae/ha, 22-29 DAA); 13.5% in data set [3] (2168 g ae/ha, 2-4 DAA); 10.0% in data set [3] (2168 g ae/ha, 7-9 DAA); 2.3% in data set [3] (2168 g ae/ha, 13-19 DAA); 0.3% in data set [3] (2168 g ae/ha, 22-29 DAA). The “crop injury beyond the 7-9 DAA evaluation interval” value in data set [3] (2168 g ae/ha (>4x rate required for weed control)) is recorded as “little crop injury”. In addition, the “agronomic performance of the event as a result of herbicide application” value in data set [1] is given as “not altered”.

The record behind these values is US10501752B2, “Herbicide tolerant cotton event pDAB4468.19.10.3” (Dow AgroSciences LLC, priority 2012, dated 2019).
